Here are results for 24 sequences from patent publication US20060079453A1, “Hla binding peptides and their uses” (priority 2002, published 2006).

Where two headings read alike, the source gives them in different places. No end group written: not given here.

Targets include HLA-DR DRB1*1302 (DR13) (Homo sapiens, UniProt P01903+P01911, A100E/A169T/K41T/L162R/M171V/P40S/Q125H/Q178H/Q39Y/Q99D/R42S/S66N/T262R/V115G/W38E/Y61H); HLA-DR DRB1*1501 (DR15) (Homo sapiens, UniProt P01903+P01911); HLA-DR DRB4*0101 (DR53) (Homo sapiens, UniProt P01903+P13762, G164S); HLA-DR DRB5*0101 (DR51) (Homo sapiens, UniProt P01903+Q30154); HLA-DR DRB1*0101 (DR1) (Homo sapiens, UniProt P01903+P01911, A100R/D57E/F55L/F60I/F76Y/I96L/L162R/M171V/P40L/Q125E/R42F/V115G/Y59C); HLA-DR DRB1*0401 (DR4) (Homo sapiens, UniProt P01903+P01911, A100K/A169T/F76Y/I96L/K127E/L162R/M171V/N62H/P40V/Q125Y/R42H/S133A/S149N/S66Y/V115G/V209L/W38E); HLA-DR DRB1*0701 (DR7) (Homo sapiens, UniProt P01903+P01911, A100R/A102G/A103Q/D57E/D86V/E43K/F76Y/K127E/L162R/M171V/P40G/Q125H/Q99D/R33Q/R42Y/R54Q/S133A/S66F/T210M/V115G/Y107V/Y59L/Y89S).

Experiment in all cases: biochemical
Common to all, as to assay type: binding

HLA-DR DRB1*1302 (DR13), sequence (P01903 26-254 limits assumed, other chains not shown): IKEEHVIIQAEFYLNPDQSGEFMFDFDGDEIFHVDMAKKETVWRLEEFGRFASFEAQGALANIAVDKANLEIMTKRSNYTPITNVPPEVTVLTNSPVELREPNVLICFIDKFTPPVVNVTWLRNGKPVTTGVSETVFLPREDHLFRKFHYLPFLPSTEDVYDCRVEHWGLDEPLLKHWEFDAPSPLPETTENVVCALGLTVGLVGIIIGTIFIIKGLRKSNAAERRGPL

LCNFKKNIIALLHP: the IC50 on HLA-DR DRB1*1302 (DR13) (read-out: DRBI *1302) is 16 nM; on HLA-DR DRB1*1501 (DR15) (read-out: DRBI *1501) it was 29300 nM; on HLA-DR DRB4*0101 (DR53) (read-out: DRB4 *0101), 99 nM; at HLA-DR DRB5*0101 (DR51) (read-out: DRB5 *0101) it was above 42600 nM.
Take SKIMKLPKLPISNGK: the IC50 is 6460 nM against HLA-DR DRB1*1302 (DR13) (DRBI *1302), 3570 nM on HLA-DR DRB1*1501 (DR15) (DRBI *1501), 6740 nM against HLA-DR DRB4*0101 (DR53) (DRB4 *0101) and above 10300 nM against HLA-DR DRB5*0101 (DR51) (DRB5 *0101).
QKQVQMMIMIKFMGV: the IC50 at HLA-DR DRB1*1501 (DR15) (read-out: DRBI *1501) worked out at 363 nM; at HLA-DR DRB4*0101 (DR53) (read-out: DRB4 *0101), 5.3 nM; on HLA-DR DRB5*0101 (DR51) (read-out: DRB5 *0101), 915 nM.
In the case of NYELSKKAVIFTPIY [NYELSKXAVIFTPIY], the IC50 was 410 nM against HLA-DR DRB1*1302 (DR13) (DRBI *1302), 537 nM against HLA-DR DRB1*1501 (DR15) (DRBI *1501) and 10600 nM at HLA-DR DRB5*0101 (DR51) (DRB5 *0101).
With VYDFVFADLRGVYRD, the IC50 on HLA-DR DRB1*1302 (DR13) (read-out: DRBI *1302) was 79 nM; on HLA-DR DRB1*1501 (DR15) (read-out: DRBI *1501), 855 nM; at HLA-DR DRB5*0101 (DR51) (read-out: DRB5 *0101), above 51000 nM.
As to RIVYRDNNPYGVCIM, the figures for the IC50 on HLA-DR DRB1*1501 (DR15) (read-out: DRBI *1501), at HLA-DR DRB4*0101 (DR53) (read-out: DRB4 *0101) and at HLA-DR DRB5*0101 (DR51) (read-out: DRB5 *0101) were 821 nM, 1400 nM and 20500 nM, respectively.
VRTLQQLLMGTCTIV: the values for the IC50 at HLA-DR DRB1*1302 (DR13) (read-out: DRBI *1302), at HLA-DR DRB1*1501 (DR15) (read-out: DRBI *1501) and on HLA-DR DRB5*0101 (DR51) (read-out: DRB5 *0101) were 37 nM, 1830 nM and above 15300 nM, respectively.
For HFNMLKNKMQSSFFM, the IC50 on HLA-DR DRB1*0101 (DR1) (DRB1 *0101) is 12 nM; at HLA-DR DRB1*0401 (DR4) (DRB1 *0401), 18 nM; against HLA-DR DRB1*0701 (DR7) (DRB1 *0701) it was 3230 nM; against HLA-DR DRB1*1501 (DR15) (DRBI *1501), 616 nM; against HLA-DR DRB4*0101 (DR53) (DRB4 *0101), 934 nM; on HLA-DR DRB5*0101 (DR51) (DRB5 *0101), 60 nM.
In the case of KKNIIALLIIPPKIH, the IC50 on HLA-DR DRB1*1501 (DR15) (read-out: DRBI *1501) is 32 nM; at HLA-DR DRB4*0101 (DR53) (read-out: DRB4 *0101), 8.2 nM.
Take ENPVVHAFKNIVTPR: the IC50 against HLA-DR DRB1*1501 (DR15) (DRBI *1501) was found to be 4.1 nM; against HLA-DR DRB5*0101 (DR51) (DRB5 *0101) it was 910 nM.
On to ENPVVHFFANIVTPR, for which the IC50 against HLA-DR DRB1*1501 (DR15) (DRBI *1501) turned out to be 2.9 nM; against HLA-DR DRB5*0101 (DR51) (DRB5 *0101), 6240 nM.
Turning to SAVPVYIYFNTWTTCQSIAF, the IC50 at HLA-DR DRB1*1501 (DR15) (read-out: DRBI *1501) turned out to be 92 nM; on HLA-DR DRB5*0101 (DR51) (read-out: DRB5 *0101), 20000 nM.
In the case of FLYGALLLAEGFYTTGAVRQ, the figures for the IC50 at HLA-DR DRB1*1501 (DR15) (DRBI *1501) and at HLA-DR DRB5*0101 (DR51) (DRB5 *0101) were 45 nM and 256 nM, respectively.
On to MIMIKFMGVIYIMII [MJMIKFMGVIYIMII], for which the figures for the IC50 against HLA-DR DRB1*1302 (DR13) (DRBI *1302) and at HLA-DR DRB1*1501 (DR15) (DRBI *1501) were 102 nM and 23600 nM, respectively.
For the sequence QKKYIYNLIMNTQNK, the IC50 was determined as 73 nM on HLA-DR DRB1*0101 (DR1) (DRB1 *0101); 24 nM against HLA-DR DRB1*0401 (DR4) (DRB1 *0401); 11900 nM against HLA-DR DRB1*0701 (DR7) (DRB1 *0701); 53 nM at HLA-DR DRB1*1302 (DR13) (DRBI *1302); 844 nM at HLA-DR DRB1*1501 (DR15) (DRBI *1501); 87 nM at HLA-DR DRB4*0101 (DR53) (DRB4 *0101).
With PATYGIIVPVLTSLF, the IC50 at HLA-DR DRB1*0101 (DR1) (DRB1 *0101) turned out to be 1.03 nM; against HLA-DR DRB1*0401 (DR4) (DRB1 *0401), 15 nM; against HLA-DR DRB1*1501 (DR15) (DRBI *1501) it was 2560 nM; at HLA-DR DRB5*0101 (DR51) (DRB5 *0101), 52 nM.
With NPVVHFFKNIVTPR, the results for the IC50 against HLA-DR DRB1*1501 (DR15) (DRBI *1501) and against HLA-DR DRB5*0101 (DR51) (DRB5 *0101) were 3.7 nM and 1890 nM, respectively.
Take ENEYATGAVRPFQAA: the IC50 against HLA-DR DRB1*0101 (DR1) (DRB1 *0101) was 4440 nM; at HLA-DR DRB1*0401 (DR4) (DRB1 *0401), 281 nM; on HLA-DR DRB1*0701 (DR7) (DRB1 *0701), 4970 nM; against HLA-DR DRB1*1302 (DR13) (DRBI *1302) it was 9300 nM; against HLA-DR DRB1*1501 (DR15) (DRBI *1501) it was 3010 nM; on HLA-DR DRB4*0101 (DR53) (DRB4 *0101), 10000 nM. The IC50 on HLA-DR DRB5*0101 (DR51) (DRB5 *0101) is above 10300 nM.
For the sequence MTLYQIQVMKRNQKQ, the IC50 at HLA-DR DRB1*0101 (DR1) (DRB1 *0101) is 1220 nM; against HLA-DR DRB1*0401 (DR4) (DRB1 *0401), 117 nM; at HLA-DR DRB1*0701 (DR7) (DRB1 *0701), 31100 nM; on HLA-DR DRB1*1302 (DR13) (DRBI *1302), 323 nM; at HLA-DR DRB1*1501 (DR15) (DRBI *1501) it was 2430 nM; on HLA-DR DRB4*0101 (DR53) (DRB4 *0101), 82 nM. This sequence had an IC50 on HLA-DR DRB5*0101 (DR51) (DRB5 *0101) of 22 nM.
With SHDLMLLRISEPAEL, the IC50 was 5.8 nM at HLA-DR DRB1*1302 (DR13) (read-out: DRBI *1302), 1100 nM at HLA-DR DRB1*1501 (DR15) (read-out: DRBI *1501), 12 nM at HLA-DR DRB4*0101 (DR53) (read-out: DRB4 *0101) and at least 100000 nM at HLA-DR DRB5*0101 (DR51) (read-out: DRB5 *0101).
HFFKNIVTPRTPPY: the IC50 at HLA-DR DRB1*1501 (DR15) (DRBI *1501) was determined as 460 nM; against HLA-DR DRB5*0101 (DR51) (DRB5 *0101), 377 nM.
As to SAFLESQSMNKIGDD, the IC50 against HLA-DR DRB1*0101 (DR1) (DRB1 *0101) was determined as 549 nM; against HLA-DR DRB1*0701 (DR7) (DRB1 *0701), 523 nM; on HLA-DR DRB1*1501 (DR15) (DRBI *1501) it was 18700 nM; against HLA-DR DRB4*0101 (DR53) (DRB4 *0101), 302 nM; against HLA-DR DRB5*0101 (DR51) (DRB5 *0101), 243 nM.
Take SMEYKKDFLITARKY: the results for the IC50 at HLA-DR DRB1*1302 (DR13) (read-out: DRBI *1302) and on HLA-DR DRB1*1501 (DR15) (read-out: DRBI *1501) were 3820 nM and 4610 nM, respectively.
In the case of KSKFNILSSPLFNNF, the IC50 on HLA-DR DRB1*0101 (DR1) (read-out: DRB1 *0101) turned out to be 0.8 nM; on HLA-DR DRB1*0401 (DR4) (read-out: DRB1 *0401) it was 16 nM; at HLA-DR DRB1*0701 (DR7) (read-out: DRB1 *0701) it was 65 nM; at HLA-DR DRB1*1302 (DR13) (read-out: DRBI *1302) it was 25 nM; on HLA-DR DRB1*1501 (DR15) (read-out: DRBI *1501) it was 5.9 nM; on HLA-DR DRB5*0101 (DR51) (read-out: DRB5 *0101), 32 nM.
